Source: US8759318B2, “Phosphoramidate derivatives of guanosine nucleoside compounds for treatment of viral infections” (Inhibitex, Inc., priority 2009, dated 2014)
Read-outs that look alike come from different tables or passages of the source.

Columns and labels:
[1] = Protide stability in normal plasma, human; format: in vitro ADME; conditions: 37° C.
Experimental: (§1) Selected nucleoside 5′-phosphoramidates were examined for stability in human, cynomolgous monkey, rat and mouse plasma at 37° C. at both 30 min and 90 min time points.
(§2) Protide Stability in Normal Plasma: Plasma samples were prepared for analysis as follows. 50 μl of each test sample were distributed a 96-well V-bottom plate. 200 μl of acetonitrile containing 10 ng/ml of an internal standard was added to each plasma sample. The precipitated samples were centrifuged at 2500 rpm, 4° C. for 20 minutes in a Sorvall RT6000S centrifuge (Thermo Scientific, Waltham Mass.) and 100 μl of supernatant from each sample was transferred into a 96 deep well plate followed by the addition of 100 μl H2O to each sample. Samples were covered, mixed well by vortexing and maintained at 2-8° C. before and during analysis. 15 μl of each test sample was analyzed for protide concentrations by liquid chromatography coupled to tandem mass spectrometry (LC-MS/MS). Liquid chromatography was performed with an Agilent 1100 Series HPLC system equipped with a Synergi 4 μm Polar-RP, 30×2.0 mm column (Phenomenex, Torrance, Calif.). The HPLC system was coupled to an API 4000 triple quadrupole mass spectrometer (Applied Biosystems, Framingham, Mass.). Mass spectrometry was performed in positive ion mode and data was analyzed using Analyst® v1.4.2 software (Applied Biosystems, Framingham, Mass.). Data was presented as the percentage of compound recovered as compared to the 0 time point control.

[2] = Protide stability in normal plasma, mouse; format: in vitro ADME; conditions: 37° C.
Experimental: as §1, §2

[3] = Protide stability in normal plasma, cynomolgous monkey; format: in vitro ADME; conditions: 37° C.
Experimental: as §1, §2

[4] = Protide stability in normal plasma, rat; format: in vitro ADME; conditions: 37° C.
Experimental: as §1, §2

[5] = Mouse PK: 2'-C-methylguanosine triphosphate levels in liver; conditions: 2'-C-methylguanosine triphosphate in mouse liver, 50 mg/kg PO
[6] = test system: HCV replicon (Genotype 1b); experiment: Luciferase genotype 1b replicon potency assay; conditions: Hepatitis C virus, GETYPE1B, read-out: IC50 μM, HCV genotype 1b luciferase replicon, Renilla luciferase reporter
in vitro = conditions: human
[7] = mouse, in vivo, po, 50 mg/kg; for Cmax / T1/2 / Tmax: female, ICR

| SMILES | % Compound Remaining Compared to %100 Acetonitrile Control ([1]; 30 min) | % Compound Remaining Compared to %100 Acetonitrile Control ([1]; 1.5 h) | % Compound Remaining Compared to %100 Acetonitrile Control ([2]; 30 min) | % Compound Remaining Compared to %100 Acetonitrile Control ([2]; 1.5 h) | % Compound Remaining Compared to %100 Acetonitrile Control ([3]; 30 min) | % Compound Remaining Compared to %100 Acetonitrile Control ([3]; 1.5 h) | % Compound Remaining Compared to %100 Acetonitrile Control ([4]; 30 min) | % Compound Remaining Compared to %100 Acetonitrile Control ([4]; 1.5 h) | IC50 [6] | CC50 (in vitro) | further results |
| --- | --- | --- | --- | --- | --- | --- | --- | --- | --- | --- | --- |
| C[C@H](NP(=O)(OC[C@H]1OC(n2cnc3c(=O)[nH]c(N)nc32)[C@](C)(O)[C@@H]1O)Oc1cccc2ccccc12)C(=O)OCC(C)(C)C (some centres unmarked) [A, reference compound] | 83.2% | 80.8% | 0% | 0% | 98.5% | 102.4% | 0% | 0% |  |  | AUC0-6 [5]: 1584 ng·h/g |
| CC(C)[C@H](NP(=O)(OC[C@H]1OC(n2cnc3c(=O)[nH]c(N)nc32)[C@](C)(O)[C@@H]1O)Oc1cccc2ccccc12)C(=O)OCC(C)(C)C (some centres unmarked) [B, reference compound] | 74.7% | 78.1% | 68.3% | 32.3% | 84.5% | 84.9% | 66.7% | 42.0% |  |  |  |
| COc1nc(N)nc2c1ncn2C1O[C@H](COP(=O)(N[C@@H](C)C(=O)OCc2ccccc2)Oc2cccc3ccccc23)[C@@H](O)[C@@]1(C)O (some centres unmarked) [Example 13] | 97.2% | 85.4% | <3.9% |  | 89.1% | 77.0% |  |  | 0.026 µM | 14 µM |  |
| COc1nc(N)nc2c1ncn2C1O[C@H](COP(=O)(N[C@H](C(=O)OCc2ccccc2)C(C)C)Oc2cccc3ccccc23)[C@@H](O)[C@@]1(C)O (some centres unmarked) [Example 36] | 70.3% | 74.1% | 0.4% | 0% | 93.7% | 96% | 16.9% | 1.4% | 0.09 µM | 34 µM | Cmax [7]: 1209.7 ng/g; T1/2 [7]: 2.0 h; Tmax [7]: 4.0 h; AUC0-6 [7]: 5055 ng·h/g; AUC0-24 [7]: 6356 ng·h/g |
| COc1nc(N)nc2c1ncn2C1O[C@H](COP(=O)(N[C@H](C(=O)O[C@@H](C)c2ccccc2)C(C)C)Oc2cccc3ccccc23)[C@@H](O)[C@@]1(C)O (stereo partly drawn) [Example 38, (2S)-((S)-1-phenylethyl) 2-((((2R,3R,4R)-5-(2-amino-6-methoxy-9H-purin-9-yl)-3,4-dihydroxy-4-methyltetrahydrofuran-2-yl)methoxy) (naphthalen-1-yloxy)phosphorylamino)-3-methylbutanoate] |  |  |  |  |  |  |  |  | 0.94 µM | 29 µM | Cmax [7]: 3130.0 ng/g; T1/2 [7]: 4.3 h; Tmax [7]: 4.0 h; AUC0-6 [7]: 14380 ng·h/g; AUC0-24 [7]: 26837 ng·h/g |
| COc1nc(N)nc2c1ncn2C1O[C@H](COP(=O)(N[C@H](C(=O)OC2CCOCC2)C(C)C)Oc2cccc3ccccc23)[C@@H](O)[C@@]1(C)O (stereo partly drawn) [Example 47, (2S)-tetrahydro-2H-pyran-4-yl 2-((((2R,3R,4R)-5-(2-amino-6-methoxy-9H-purin-9-yl)-3,4-dihydroxy-4-methyltetrahydrofuran-2-yl)methoxy)(naphthalen-1-yloxy)phosphorylamino)-3-methylbutanoate] | 105.1% | 129.5% | 74.3% | 67.4% | 112.5% | 118.5% | 71.3% | 57.3% | 0.18 µM | > 100 µM |  |
| COc1nc(N)nc2c1ncn2C1O[C@H](COP(=O)(N[C@H](C(=O)OCC(C)(C)C)C(C)C)Oc2c(C)ccc3ccccc23)[C@@H](O)[C@@]1(C)O (some centres unmarked) [Example 54] | 80.4% | 93.5% | 60.7% | 45.7% | 119.3% | 124.2% | 60.6% | 58.4% | 1.5 µM | 23 µM |  |
| COc1nc(NCc2ccc(F)cc2)nc2c1ncn2[C@@H]1O[C@H](COP(=O)(N[C@@H](C)C(=O)OCC(C)(C)C)Oc2cccc3ccccc23)[C@@H](O)[C@@]1(C)O (stereo partly drawn) [Example 93, (2S)-neopentyl 2-((((2R,3R,4R,5R)-5-(2-(4-fluorobenzylamino)-6-methoxy-9H-purin-9-yl)-3,4-dihydroxy-4-methyltetrahydrofuran-2-yl)methoxy)(naphthalen-1-yloxy)phosphorylamino)propanoate] |  |  |  |  |  |  |  |  | 7.2 µM | 17 µM |  |
| COc1nc(N)nc2c1ncn2C1O[C@H](COP(=O)(N[C@@H](C)C(=O)OCc2ccccc2)Oc2cccc3ccccc23)C[C@@]1(C)O (stereo partly drawn) [Example 95, (2S)-benzyl 2-((((2S,4R)-5-(2-amino-6-methoxy-9H-purin-9-yl)-4-hydroxy-4-methyltetrahydrofuran-2-yl)methoxy)(naphthalen-1-yloxy)phosphorylamino)propanoate] |  |  |  |  |  |  |  |  | 0.9 µM | 70 µM |  |
| COc1nc(N)nc2c1ncn2C1O[C@H](COP(=O)(N[C@@H](C)C(=O)O[C@@H](C)c2ccccc2)Oc2cccc3ccccc23)C[C@@]1(C)O (stereo partly drawn) [Example 96, (2S)-((S)-1-phenylethyl) 2-((((2S,4R)-5-(2-amino-6-methoxy-9H-purin-9-yl)-4-hydroxy-4-methyltetrahydrofuran-2-yl)methoxy)(naphthalen-1-yloxy)phosphorylamino)propanoate] |  |  |  |  |  |  |  |  | > 10 µM | 20 µM |  |
| COc1nc(N)nc2c1ncn2C1O[C@H](COP(=O)(N[C@@H](C)C(=O)OCC(C)(C)C)Oc2cccc3ccccc23)C[C@@]1(C)O (stereo partly drawn) [Example 97, (2S)-neopentyl 2-((((2S,4R)-5-(2-amino-6-methoxy-9H-purin-9-yl)-4-hydroxy-4-methyltetrahydrofuran-2-yl)methoxy)(naphthalen-1-yloxy)phosphorylamino)propanoate] |  |  |  |  |  |  |  |  | > 10 µM | 44 µM |  |
| COc1nc(N)nc2c1ncn2C1O[C@H](COP(=O)(N[C@@H](C)C(=O)OC2CCCCC2)Oc2cccc3ccccc23)C[C@@]1(C)O (stereo partly drawn) [Example 98, (2S)-cyclohexyl 2-((((2S,4R)-5-(2-amino-6-methoxy-9H-purin-9-yl)-4-hydroxy-4-methyltetrahydrofuran-2-yl)methoxy)(naphthalen-1-yloxy)phosphorylamino)propanoate] |  |  |  |  |  |  |  |  | > 10 µM | 20 µM |  |
| COc1nc(N)nc2c1ncn2C1O[C@H](COP(=O)(N[C@H](C(=O)OCc2ccccc2)C(C)C)Oc2cccc3ccccc23)C[C@@]1(C)O (stereo partly drawn) [Example 99, benzyl (2S)-benzyl 2-((((2S,4R)-5-(2-amino-6-methoxy-9H-purin-9-yl)-4-hydroxy-4-methyltetrahydrofuran-2-yl)methoxy)(naphthalen-1-yloxy)phosphorylamino)-3-methylbutanoate] |  |  |  |  |  |  |  |  | > 10 µM | 22 µM |  |
| C[C@H](NP(=O)(OC[C@H]1OC(n2cnc3c(=O)[nH]c(N)nc32)[C@](C)(O)[C@@H]1O)Oc1cccc2ccccc12)C(=O)O[C@@H](C)c1ccccc1 (some centres unmarked) [G, reference compound] |  |  |  |  |  |  |  |  |  |  | AUC0-6 [5]: 6977 ng·h/g |
| CC(C)[C@H](NP(=O)(OC[C@H]1OC(n2cnc3c(=O)[nH]c(N)nc32)[C@](C)(O)[C@@H]1O)Oc1cccc2ccccc12)C(=O)OCc1ccccc1 (some centres unmarked) [M, reference compound] |  |  |  |  |  |  |  |  |  |  | AUC0-6 [5]: 1937 ng·h/g |
